In patent EP4223292A1, “PHARMACEUTICAL COMBINATIONS FOR TREATING CANCER” (Cellestia Biotech AG, priority 2022, dated 2023):

System: Human TNBC cell line HCC1187
Test: In vivo efficacy study, tumor growth delay of subcutaneous HCC1187 xenograft
Set-up: species or system NSG mice
Settings: for TGD compared to control (group a): endpoint ten times the initial volume (1000%), difference of MTTE versus control
Text: Cultured cells were harvested, washed and counted. One million cells per mouse were subcutaneously transplanted into NSG mice. Animals were monitored for tumor growth. Once average tumor volume reached between 50-130 mm^3, animals were randomized for treatment with 6-(4-Tert-Butylphenoxy)Pyridin-3-Amine , Paclitaxel as single agent and 6-(4-Tert-Butylphenoxy)Pyridin-3-Amine + Paclitaxel combination. The treatment regimen was implemented as below: • a) Vehicle • b) 6-(4-Tert-Butylphenoxy)Pyridin-3-Amine single agent for 2 weeks • c) Paclitaxel single agent for 2 weeks and then monitor tumor growth without further treatment • d) 6-(4-Tert-Butylphenoxy)Pyridin-3-Amine + Paclitaxel combination for 2 weeks and then monitor tumor growth without further treatment • e) 6-(4-Tert-Butylphenoxy)Pyridin-3-Amine + Paclitaxel combination for 2 weeks and then continue treatment with 6-(4-Tert-Butylphenoxy)Pyridin-3-Amine alone as single agent and monitor tumor growth.
Tumor dimensions (L=length, W=width) were measured using a digital caliper. Tumor volume was calculated with the following formula: L^∗W^∗W/2. Tumor growth is followed as percentage of initial volume. Median Time To Endpoint (MTTE) was measured in days for an individual group to reach 1000% (10 times) the initial volume as end point. Tumor Growth Delay (TGD) was calculated as difference in days between MTTE of control and treatment groups.

Row | Structure (SMILES) | TGD compared to control (group a) (group b: single agent for 2 weeks) | efficacy (in words) (single agent alone, HCC1187 xenograft) | TGD compared to control (group a) (groups c, d: treatment for 2 weeks, then no treatment)
1 | CC(C)(C)c1ccc(Oc2ccc(N)cn2)cc1 [6-(4-Tert-Butylphenoxy)Pyridin-3-Amine] | 3 days | only modest efficacy | 
2 | CC(=O)O[C@H]1C(=O)[C@@]2(C)[C@H]([C@H](OC(=O)c3ccccc3)[C@]3(O)C[C@H](OC(=O)[C@H](O)[C@@H](NC(=O)c4ccccc4)c4ccccc4)C(C)=C1C3(C)C)[C@]1(OC(C)=O)CO[C@@H]1C[C@@H]2O [Paclitaxel, reference compound] |  |  | 21 days
